Reference: paper PMC5218480 (PLoS ONE, 2017)

Tested on: MV-4-11 cells
Test: Gene expression microarray analysis (Affymetrix PrimeView) and GSEA
Type: cell-based, human
Set-up: RFU PODN (11730768_x_at) / Fold change /veh PODN (11730768_x_at) / RFU LINC00158 (11744669_a_at) / Fold change /veh LINC00158 (11744669_a_at) / RFU DUSP10 (11751237_a_at) / Fold change /veh DUSP10 (11751237_a_at) / RFU ID3 (11757404_x_at) / Fold change /veh ID3 (11757404_x_at) / RFU PLEKHG5 (11737974_s_at) / Fold change /veh PLEKHG5 (11737974_s_at) / RFU LRRC4B (11730491_at) / Fold change /veh LRRC4B (11730491_at) / RFU GIMAP4 (11747438_a_at) / Fold change /veh GIMAP4 (11747438_a_at) / RFU KRT8 (11758183_x_at) / Fold change /veh KRT8 (11758183_x_at) / RFU CNN1 (11734310_a_at) / Fold change /veh CNN1 (11734310_a_at) / RFU VPS37D (11726825_at) / Fold change /veh VPS37D (11726825_at) / RFU C10orf10 (11716522_x_at) / Fold change /veh C10orf10 (11716522_x_at) / RFU KIR2DL2 /// KIR2DL4 /// KIR2DL5A /// KIR2DL5B /// KIR2DS1 /// KIR2DS2 /// KIR2DS3 /// KIR2DS4 /// KIR3DL3 /// KIR3DL3 /// KIR3DS1 (11738374_at) / Fold change /veh KIR2DL2 /// KIR2DL4 /// KIR2DL5A /// KIR2DL5B /// KIR2DS1 /// KIR2DS2 /// KIR2DS3 /// KIR2DS4 /// KIR3DL3 /// KIR3DL3 /// KIR3DS1 (11738374_at) / RFU C1QL1 (11718748_at) / Fold change /veh C1QL1 (11718748_at) / RFU TMPRSS4 (11747572_a_at) / Fold change /veh TMPRSS4 (11747572_a_at) / RFU HAMP (11756126_x_at) / Fold change /veh HAMP (11756126_x_at) / RFU RNFT2 (11725882_a_at) / Fold change /veh RNFT2 (11725882_a_at) / RFU NR4A2 (11747474_a_at) / Fold change /veh NR4A2 (11747474_a_at) / RFU ABCC12 (11746883_a_at) / Fold change /veh ABCC12 (11746883_a_at) / RFU TMEM136 (11760407_x_at) / Fold change /veh TMEM136 (11760407_x_at) / RFU CLDN22 /// WWC2 (11732394_at) / Fold change /veh CLDN22 /// WWC2 (11732394_at) / RFU HLA-DPB1 (11760878_x_at) / Fold change /veh HLA-DPB1 (11760878_x_at) / RFU SPINT1 (11716480_a_at) / Fold change /veh SPINT1 (11716480_a_at) / RFU GAP43 (11754022_s_at) / Fold change /veh GAP43 (11754022_s_at) / RFU A4GNT (11735810_at) / Fold change /veh A4GNT (11735810_at) / RFU PRB3 (11715151_x_at) / Fold change /veh PRB3 (11715151_x_at) / RFU TUBB4B (11761932_at) / Fold change /veh TUBB4B (11761932_at) / RFU CAPN14 (11732068_a_at) / Fold change /veh CAPN14 (11732068_a_at) / RFU TMCC2 (11721928_a_at) / Fold change /veh TMCC2 (11721928_a_at) / RFU IRGQ (11745062_a_at) / Fold change /veh IRGQ (11745062_a_at) / RFU FAM174B (11720279_a_at) / Fold change /veh FAM174B (11720279_a_at) / RFU TMPRSS4 (11748680_a_at) / Fold change /veh TMPRSS4 (11748680_a_at) / RFU FAM212B (11763350_a_at) / Fold change /veh FAM212B (11763350_a_at) / RFU PLEKHG5 (11743358_a_at) / Fold change /veh PLEKHG5 (11743358_a_at) / RFU ZSCAN30 (11745921_a_at) / Fold change /veh ZSCAN30 (11745921_a_at) / RFU CMKLR1 (11741424_a_at) / Fold change /veh CMKLR1 (11741424_a_at) / RFU LOC101060620 /// MAPK8IP1 (11723275_at) / Fold change /veh LOC101060620 /// MAPK8IP1 (11723275_at) / RFU SPTSSB (11747773_x_at) / Fold change /veh SPTSSB (11747773_x_at) / RFU PRSS12 (11739890_at) / Fold change /veh PRSS12 (11739890_at) / RFU BIN1 (11741810_x_at) / Fold change /veh BIN1 (11741810_x_at) / RFU WNT11 (11732464_a_at) / Fold change /veh WNT11 (11732464_a_at) / RFU C10orf10 (11716521_a_at) / Fold change /veh C10orf10 (11716521_a_at) / RFU C5orf56 (11738089_at) / Fold change /veh C5orf56 (11738089_at) / RFU CYB561 (11721691_x_at) / Fold change /veh CYB561 (11721691_x_at) / RFU ANKRD19P (11752326_a_at) / Fold change /veh ANKRD19P (11752326_a_at) / RFU OR2T12 /// OR2T33 /// OR2T8 (11738714_s_at) / Fold change /veh OR2T12 /// OR2T33 /// OR2T8 (11738714_s_at) / RFU VCAN (11748164_a_at) / Fold change /veh VCAN (11748164_a_at) / RFU JSRP1 (11732532_at) / Fold change /veh JSRP1 (11732532_at) / RFU KRTAP10-11 (11738290_x_at) / Fold change /veh KRTAP10-11 (11738290_x_at) / RFU MYO3A (11730013_a_at) / Fold change /veh MYO3A (11730013_a_at) / RFU EBF3 (11725865_a_at) / Fold change /veh EBF3 (11725865_a_at) / RFU CAMK2N1 (11719241_x_at) / Fold change /veh CAMK2N1 (11719241_x_at) / RFU C5orf56 (11738088_a_at) / Fold change /veh C5orf56 (11738088_a_at) / RFU OLFML3 (11715873_a_at) / Fold change /veh OLFML3 (11715873_a_at) / RFU LOC100653217 /// NTM (11731650_a_at) / Fold change /veh LOC100653217 /// NTM (11731650_a_at) / RFU MAPK11 (11762145_a_at) / Fold change /veh MAPK11 (11762145_a_at) / RFU FIZ1 (11724087_x_at) / Fold change /veh FIZ1 (11724087_x_at) / RFU OASL (11726364_x_at) / Fold change /veh OASL (11726364_x_at) / RFU SOX15 (11748057_x_at) / Fold change /veh SOX15 (11748057_x_at) / RFU CD79A (11719716_a_at) / Fold change /veh CD79A (11719716_a_at) / RFU HIST1H1D (11736915_at) / Fold change /veh HIST1H1D (11736915_at) / RFU CASKIN2 (11723855_a_at) / Fold change /veh CASKIN2 (11723855_a_at) / RFU LOC730098 (11760151_x_at) / Fold change /veh LOC730098 (11760151_x_at) / RFU OR4N2 (11742367_at) / Fold change /veh OR4N2 (11742367_at) / RFU PRRT2 (11749266_a_at) / Fold change /veh PRRT2 (11749266_a_at) / RFU SNX32 (11753110_a_at) / Fold change /veh SNX32 (11753110_a_at) / RFU CDHR5 (11726645_a_at) / Fold change /veh CDHR5 (11726645_a_at) / RFU RCAN1 (11760418_a_at) / Fold change /veh RCAN1 (11760418_a_at) / RFU FAM167A (11723789_a_at) / Fold change /veh FAM167A (11723789_a_at) / RFU FAM26E (11764081_at) / Fold change /veh FAM26E (11764081_at) / RFU ISYNA1 (11749810_s_at) / Fold change /veh ISYNA1 (11749810_s_at) / RFU ACY1 (11761880_at) / Fold change /veh ACY1 (11761880_at) / RFU 11764098_at / Fold change /veh 11764098_at / RFU SAMD14 (11745864_x_at) / Fold change /veh SAMD14 (11745864_x_at) / RFU NPB (11741838_a_at) / Fold change /veh NPB (11741838_a_at) / RFU TMPRSS6 (11731388_a_at) / Fold change /veh TMPRSS6 (11731388_a_at) / RFU KRTAP10-2 (11738614_at) / Fold change /veh KRTAP10-2 (11738614_at) / RFU ARHGAP8 /// PRR5-ARHGAP8 (11727945_x_at) / Fold change /veh ARHGAP8 /// PRR5-ARHGAP8 (11727945_x_at) / RFU KRTAP5-7 /// NADSYN1 (11734609_at) / Fold change /veh KRTAP5-7 /// NADSYN1 (11734609_at) / RFU RASL12 (11751679_a_at) / Fold change /veh RASL12 (11751679_a_at) / RFU CDKN2B (11736163_a_at) / Fold change /veh CDKN2B (11736163_a_at) / RFU PRF1 (11729649_at) / Fold change /veh PRF1 (11729649_at) / RFU, ZNF638 /// ZNF638-IT1 / Fold change vs veh, ZNF638 /// ZNF638-IT1 / RFU, PANK3 / Fold change vs veh, PANK3 / RFU, SH3YL1 / Fold change vs veh, SH3YL1 / RFU, ZEB2 / Fold change vs veh, ZEB2 / RFU, NRIP1 / Fold change vs veh, NRIP1 / RFU, PTTG1IP / Fold change vs veh, PTTG1IP / RFU, CAPN2 / Fold change vs veh, CAPN2 / RFU, MED14 / Fold change vs veh, MED14 / RFU, SNORA58 / Fold change vs veh, SNORA58 / RFU, C1orf63 / Fold change vs veh, C1orf63 / RFU, LRRFIP1 / Fold change vs veh, LRRFIP1 / RFU, NDUFAF7 / Fold change vs veh, NDUFAF7 / RFU, SLC12A2 / Fold change vs veh, SLC12A2 / RFU, IBTK / Fold change vs veh, IBTK / RFU, ESF1 / Fold change vs veh, ESF1 / Fold change vs veh, TMEM50B / RFU, TAOK1 / Fold change vs veh, TAOK1 / RFU, ACBD3 / Fold change vs veh, ACBD3 / RFU, TMA16 / Fold change vs veh, TMA16 / RFU, RWDD3 / Fold change vs veh, RWDD3 / RFU, BCAT1 / Fold change vs veh, BCAT1 / RFU, EDEM3 / Fold change vs veh, EDEM3 / RFU, TMEM33 / Fold change vs veh, TMEM33 / RFU, WDR75 / Fold change vs veh, WDR75 / RFU, AHCTF1 / Fold change vs veh, AHCTF1 / RFU, TFRC / Fold change vs veh, TFRC / RFU, ZDHHC17 / Fold change vs veh, ZDHHC17 / RFU, NOM1 / Fold change vs veh, NOM1 / RFU, ARL8B / Fold change vs veh, ARL8B / RFU, ZBTB11 / Fold change vs veh, ZBTB11 / RFU, TAMM41 / Fold change vs veh, TAMM41 / RFU, KIAA1704 /// LOC100996395 / Fold change vs veh, KIAA1704 /// LOC100996395 / RFU, ING1 / Fold change vs veh, ING1 / RFU, TRMT61B / Fold change vs veh, TRMT61B / RFU, FUBP3 / Fold change vs veh, FUBP3 / RFU, TP53 / Fold change vs veh, TP53 / RFU, TNKS2 / Fold change vs veh, TNKS2 / RFU, ZFP14 / Fold change vs veh, ZFP14 / RFU, ACTR2 / Fold change vs veh, ACTR2 / RFU, PPP3R1 / Fold change vs veh, PPP3R1 / RFU, PIK3R1 / Fold change vs veh, PIK3R1 / RFU, HNRNPA1 / Fold change vs veh, HNRNPA1 / RFU, RNF170 / Fold change vs veh, RNF170 / RFU, ZNF28 / Fold change vs veh, ZNF28 / RFU, RNGTT / Fold change vs veh, RNGTT / RFU, OGT / Fold change vs veh, OGT / RFU, BRD1 / Fold change vs veh, BRD1 / RFU, MARS / Fold change vs veh, MARS / RFU, ZNF655 / Fold change vs veh, ZNF655 / RFU, FAHD1 / Fold change vs veh, FAHD1 / RFU, BDP1 / Fold change vs veh, BDP1 / RFU, LRRCC1 / Fold change vs veh, LRRCC1 / RFU, ARID1A / Fold change vs veh, ARID1A / RFU, ZNF146 / Fold change vs veh, ZNF146 / RFU, ZNF330 / Fold change vs veh, ZNF330 / RFU, GPN3 / Fold change vs veh, GPN3 / RFU, C9orf123 / Fold change vs veh, C9orf123 / RFU, N4BP2L2 / Fold change vs veh, N4BP2L2 / RFU, ARFIP1 / Fold change vs veh, ARFIP1 / RFU, FAM179B / Fold change vs veh, FAM179B / RFU, BCL10 / Fold change vs veh, BCL10 / RFU, UHRF1BP1L / Fold change vs veh, UHRF1BP1L / RFU, BET1 / Fold change vs veh, BET1 / RFU, CNOT2 / Fold change vs veh, CNOT2 / RFU, ZNF268 / Fold change vs veh, ZNF268 / Fold change vs veh, ZNF507 / RFU, DGCR2 / Fold change vs veh, DGCR2 / RFU, WDSUB1 / Fold change vs veh, WDSUB1 / Fold change vs veh, HSP90B1 /// MIR3652 / RFU, ADSS / Fold change vs veh, ADSS / RFU, GK / Fold change vs veh, GK / RFU, ZNF148 / Fold change vs veh, ZNF148 / RFU, TAF9 / Fold change vs veh, TAF9 / RFU, SLC1A5 / Fold change vs veh, SLC1A5 / RFU, SLMO2 / Fold change vs veh, SLMO2 / RFU, ABCC4 / Fold change vs veh, ABCC4 / RFU, LOC101060439 /// RAP1B / Fold change vs veh, LOC101060439 /// RAP1B / RFU, RFX7 / Fold change vs veh, RFX7 / RFU, GTPBP10 / Fold change vs veh, GTPBP10 / RFU, CNEP1R1 / Fold change vs veh, CNEP1R1 / RFU, BIVM-ERCC5 /// ERCC5 / Fold change vs veh, BIVM-ERCC5 /// ERCC5 / RFU, ILF3 / Fold change vs veh, ILF3 / RFU 11762660_at / Fold change /veh 11762660_at / RFU VCAN (11757783_s_at) / Fold change /veh VCAN (11757783_s_at) / RFU DDX43 (11728927_at) / Fold change /veh DDX43 (11728927_at) / RFU KRT8 (11758188_x_at) / Fold change /veh KRT8 (11758188_x_at) / RFU NKD1 (11759106_at) / Fold change /veh NKD1 (11759106_at) / RFU SRD5A1 (11742802_a_at) / Fold change /veh SRD5A1 (11742802_a_at) / RFU TPSAB1 /// TPSB2 (11721975_s_at) / Fold change /veh TPSAB1 /// TPSB2 (11721975_s_at) / RFU GSTM3 (11746129_a_at) / Fold change /veh GSTM3 (11746129_a_at) / RFU IL23R (11737362_x_at) / Fold change /veh IL23R (11737362_x_at) / RFU TMEM51 (11727254_a_at) / Fold change /veh TMEM51 (11727254_a_at) / RFU PIWIL2 (11732686_x_at) / Fold change /veh PIWIL2 (11732686_x_at) / RFU ORM1 (11744905_x_at) / Fold change /veh ORM1 (11744905_x_at) / RFU CCDC152 (11743942_at) / Fold change /veh CCDC152 (11743942_at) / RFU ECM1 (11717891_a_at) / Fold change /veh ECM1 (11717891_a_at) / RFU IL23R (11748794_a_at) / Fold change /veh IL23R (11748794_a_at) / RFU TNFAIP8L3 (11732012_x_at) / Fold change /veh TNFAIP8L3 (11732012_x_at) / RFU MBOAT4 (11741988_at) / Fold change /veh MBOAT4 (11741988_at) / RFU 11764193_at / Fold change /veh 11764193_at / RFU TMEM53 (11763286_at) / Fold change /veh TMEM53 (11763286_at) / RFU MAGEB2 (11727129_at) / Fold change /veh MAGEB2 (11727129_at) / RFU TMEM200A (11744735_a_at) / Fold change /veh TMEM200A (11744735_a_at) / RFU CCDC152 (11751479_a_at) / Fold change /veh CCDC152 (11751479_a_at) / RFU FAM211A (11726209_a_at) / Fold change /veh FAM211A (11726209_a_at) / RFU RGS16 (11746705_a_at) / Fold change /veh RGS16 (11746705_a_at) / RFU VCAN (11755009_s_at) / Fold change /veh VCAN (11755009_s_at) / RFU RHOB (11743442_s_at) / Fold change /veh RHOB (11743442_s_at) / RFU RGS16 (11720943_a_at) / Fold change /veh RGS16 (11720943_a_at) / RFU RGS16 (11720944_at) / Fold change /veh RGS16 (11720944_at) / RFU, VPS4B / Fold change vs veh, VPS4B / RFU, CREB1 / Fold change vs veh, CREB1 / RFU, DNAJC13 / Fold change vs veh, DNAJC13 / RFU, GNAQ / Fold change vs veh, GNAQ / RFU, CDK5R1 / Fold change vs veh, CDK5R1 / RFU, ZRANB3 / Fold change vs veh, ZRANB3 / RFU, CUL4A / Fold change vs veh, CUL4A / RFU, CCNY / Fold change vs veh, CCNY / RFU, UFL1 / Fold change vs veh, UFL1 / RFU, COG3 / Fold change vs veh, COG3 / RFU, DIAPH2 / Fold change vs veh, DIAPH2 / RFU, SKA2 / Fold change vs veh, SKA2 / RFU, AFF3 / Fold change vs veh, AFF3 / RFU, LMF1 / Fold change vs veh, LMF1 / RFU, IPO11 / Fold change vs veh, IPO11 / RFU, DFFB / Fold change vs veh, DFFB / RFU, FOXP1 / Fold change vs veh, FOXP1 / RFU, CARD8 / Fold change vs veh, CARD8 / RFU, STRN3 / Fold change vs veh, STRN3 / RFU, ADK / Fold change vs veh, ADK / RFU, RASSF2 / Fold change vs veh, RASSF2 / RFU, WIPF1 / Fold change vs veh, WIPF1 / RFU, LARP1B / Fold change vs veh, LARP1B / RFU, RASA1 / Fold change vs veh, RASA1 / RFU, RB1 / Fold change vs veh, RB1 / RFU, PPFIA1 / Fold change vs veh, PPFIA1 / RFU, MAT2A / Fold change vs veh, MAT2A / RFU, CCT5 / Fold change vs veh, CCT5 / RFU, WDR92 / Fold change vs veh, WDR92 / RFU, CUX1 / Fold change vs veh, CUX1 / RFU, TTC7A / Fold change vs veh, TTC7A / RFU, TMEM135 / Fold change vs veh, TMEM135 / RFU, DEPTOR / Fold change vs veh, DEPTOR / RFU, CPM / Fold change vs veh, CPM / RFU, DNAJB6 / Fold change vs veh, DNAJB6 / RFU, CACNA2D3 / Fold change vs veh, CACNA2D3 / RFU, DTX4 / Fold change vs veh, DTX4 / RFU, TFCP2 / Fold change vs veh, TFCP2 / RFU, GMCL1 /// GMCL1P1 / Fold change vs veh, GMCL1 /// GMCL1P1 / RFU, AEBP2 / Fold change vs veh, AEBP2 / RFU, SNHG1 /// SNORD22 /// SNORD25 /// SNORD26 /// SNORD27 /// SNORD28 /// SNORD29 /// SNORD31 / Fold change vs veh, SNHG1 /// SNORD22 /// SNORD25 /// SNORD26 /// SNORD27 /// SNORD28 /// SNORD29 /// SNORD31 / Fold change (Aza/veh), C12orf56 (ProbeSet 11735607_a_at) / Fold change (ACY-1035/veh), C12orf56 (ProbeSet 11735607_a_at) / Fold change (Aza/veh), FGFR1OP (ProbeSet 11751329_s_at) / Fold change (ACY-1035/veh), FGFR1OP (ProbeSet 11751329_s_at) / Fold change (Aza/veh), VPS36 (ProbeSet 11739960_a_at) / Fold change (ACY-1035/veh), VPS36 (ProbeSet 11739960_a_at) / RFU SYPL1 (11715823_x_at) / Fold change /veh SYPL1 (11715823_x_at) / RFU IGFBP7 (11715501_s_at) / Fold change /veh IGFBP7 (11715501_s_at) / RFU REEP3 (11722064_at) / Fold change /veh REEP3 (11722064_at) / RFU IGLL1 (11728026_x_at) / Fold change /veh IGLL1 (11728026_x_at): dose or concentration left out as unconfirmed
Conditions: ProbeSet 11722302_a_at; LIST B

For `Nc1ccc(-c2cccs2)cc1NC(=O)c1ccc2c(c1)cc(C1CC1)n2CCN1CCOCC1` [ACY-1035], which “RFU, LRRFIP1” value is on record?
Its value is 143.54 RFU.
